Target: T1, FLT3 kinase (Homo sapiens, UniProt P36888)
T1 construct: purchased SignalChem
T1 sequence (P36888 27-993): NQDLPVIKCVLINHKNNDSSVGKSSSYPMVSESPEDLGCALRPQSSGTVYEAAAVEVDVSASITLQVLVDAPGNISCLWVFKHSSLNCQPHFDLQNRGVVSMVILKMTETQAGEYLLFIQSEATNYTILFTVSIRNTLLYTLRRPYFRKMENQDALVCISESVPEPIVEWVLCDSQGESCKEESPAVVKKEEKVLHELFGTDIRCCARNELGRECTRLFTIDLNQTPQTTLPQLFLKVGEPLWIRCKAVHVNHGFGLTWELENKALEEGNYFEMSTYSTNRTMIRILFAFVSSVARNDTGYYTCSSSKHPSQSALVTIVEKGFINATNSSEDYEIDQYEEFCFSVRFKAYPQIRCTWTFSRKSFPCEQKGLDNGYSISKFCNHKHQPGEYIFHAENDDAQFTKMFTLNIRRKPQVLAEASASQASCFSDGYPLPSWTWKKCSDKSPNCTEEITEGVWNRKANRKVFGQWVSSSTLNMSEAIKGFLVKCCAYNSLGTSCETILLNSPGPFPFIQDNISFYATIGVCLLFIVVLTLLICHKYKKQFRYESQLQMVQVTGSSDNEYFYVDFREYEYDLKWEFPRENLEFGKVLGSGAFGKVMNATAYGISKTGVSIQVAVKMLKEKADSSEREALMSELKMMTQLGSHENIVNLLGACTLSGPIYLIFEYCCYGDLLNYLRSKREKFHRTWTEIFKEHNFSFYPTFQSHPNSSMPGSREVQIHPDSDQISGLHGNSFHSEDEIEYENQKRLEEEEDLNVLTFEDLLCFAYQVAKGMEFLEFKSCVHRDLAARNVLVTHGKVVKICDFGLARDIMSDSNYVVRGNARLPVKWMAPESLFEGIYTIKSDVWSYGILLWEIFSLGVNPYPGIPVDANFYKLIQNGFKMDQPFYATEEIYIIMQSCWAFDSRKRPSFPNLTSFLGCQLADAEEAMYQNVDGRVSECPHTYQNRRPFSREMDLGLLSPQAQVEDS
Assay: FLT3 kinase assay (AlphaScreen)
Assay type: biochemical
Conditions: read-out: Ranking of IC50 values, FLT3
Outline: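 AlphaScreen detection of biotin-poly(Glu4:Tyr1) phosphorylation by 1.5 ng recombinant FLT3 (10 μM ATP, pH 7.0 MOPS, 10 mM MgCl2; 30 °C, 30 min, EDTA quench). IC50 values derived from serially diluted compound tested in duplicate.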

| SMILES | IC50 |
| --- | --- |
| Cn1cc(-c2cc3c(s2)Cc2c(-c4ccc5cnn(C)c5c4)n[nH]c2-3)cc1C(=O)N1CCOCC1 [Compound 46, (1-methyl-4-(3-(1-methyl-1H-indazol-6-yl)-1,4-dihydrothieno[2′,3′:4,5]cyclopenta[1,2-c]pyrazol-6-yl)-1H-pyrrol-2-yl) (morpholino)methanone] | < 1 nM |
| CN(C)c1ccc(-c2cc3c(s2)Cc2c(-c4ccc5cnn(C)c5c4)n[nH]c2-3)cn1 [Compound 5, N,N-dimethyl-5-(3-(1-methyl-1H-indazol-6-yl)-1,4-dihydrothieno [2′,3′:4,5]cyclopenta[1,2-c]pyrazol-6-yl)pyridin-2-amine] | 1 to 10 nM |
| Cn1ncc2ccc(-c3n[nH]c4c3Cc3sc(-c5ccc(CN6CCCC6=O)cc5)cc3-4)cc21 [Compound 64, 1-(4-(3-(1-methyl-1H-indazol-6-yl)-1,4-dihydro-thieno[2′,3′:4,5]cyclopenta [1,2-c]pyrazol-6-yl)benzyl)pyrrolidin-2-one] | 1 to 10 nM |
| Cn1ncc2ccc(-c3n[nH]c4c3Cc3sc(-c5ccc(OCCN6CCOCC6)cc5)cc3-4)cc21 [Compound 69, 4-(2-(4-(3-(1-methyl-1H-indazol-6-yl)-1,4-dihydro-thieno[2′,3′:4,5]cyclopenta [1,2-c]pyrazol-6-yl)phenoxy)ethyl)morpholine] | < 1 nM |
| Cn1ncc2ccc(-c3n[nH]c4c3Cc3sc(-c5cncc(C(=O)N6CCOCC6)c5)cc3-4)cc21 [Compound 31, (5-(3-(1-methyl-1H-indazol-6-yl)-1,4-dihydrothieno[2′,3′:4,5]cyclopenta[1,2-c]pyrazol-6-yl)pyridin-3-yl) (morpholino)methanone] | < 1 nM |
| C[C@H]1COCCN1Cc1ccc(-c2cc3c(s2)Cc2c(-c4ccc5cnn(C)c5c4)n[nH]c2-3)cc1 [Compound 75, (S)-3-methyl-4-(4-(3-(1-methyl-1H-indazol-6-yl)-1,4-dihydrothieno [2′,3′:4,5]cyclopenta [1,2-c]pyrazol-6-yl)benzyl)morpholine] | < 1 nM |
| Cc1cc(-c2cc3c(s2)Cc2c(-c4ccc5cnn(C)c5c4)n[nH]c2-3)ccc1CN1CCOCC1 [Compound 26, 4-(2-methyl-4-(3-(1-methyl-1H-indazol-6-yl)-1,4-dihydrothieno[2′,3′:4,5]cyclopenta[1,2-c]pyrazol-6-yl)benzyl)morpholine] | 1 to 10 nM |
| CCC(c1ccc(-c2cc3c(s2)Cc2c(-c4ccc5cnn(C)c5c4)n[nH]c2-3)cc1)N1CCOCC1 (centres unmarked) [Compound 28, 4-(1-(4-(3-(1-methyl-1H-indazol-6-yl)-1,4-dihydro-thieno[2′,3′:4,5]cyclopenta [1,2-c]pyrazol-6-yl)phenyl)propyl)morpholine] | 1 to 10 nM |
| Cn1ncc2ccc(-c3n[nH]c4c3Cc3sc(-c5ccc(C(=O)N6CCOCC6)nc5)cc3-4)cc21 [Compound 23, (5-(3-(1-methyl-1H-indazol-6-yl)-1,4-dihydro-thieno[2′,3′:4,5]cyclopenta [1,2-c]pyrazol-6-yl)pyridin-2-yl)(morpholino) methanone] | < 1 nM |
| c1cc(-c2cc3c(s2)Cc2c(-c4ccc5cn[nH]c5c4)n[nH]c2-3)ccc1CN1CCOCC1 [Compound 6, 4-(4-(3-(1H-indazol-6-yl)-1,4-dihydrothieno[2′,3′:4,5]cyclopenta[1,2-c]pyrazol-6-yl)benzyl)morpholine] | < 1 nM |
| Cn1ncc2ccc(-c3n[nH]c4c3Cc3sc(-c5ccc(CN6CCCC6)cc5)cc3-4)cc21 [Compound 99, 3-(1-methyl-1H-indazol-6-yl)-6-(4-(pyrrolidin-1-ylmethyl)phenyl)-1,4-dihydrothieno[2′,3′:4,5] cyclopenta[1,2-c]pyrazole] | < 1 nM |
| Cn1ncc2ccc(-c3n[nH]c4c3Cc3sc(-c5ccc(CN6CCCCC6=O)cc5)cc3-4)cc21 [Compound 61, 1-(4-(3-(l-methyl-1H-indazol-6-yl)-1,4-dihydro-thieno[2′,3′:4,5]cyclopenta [1,2-c]pyrazol-6-yl)benzyl)piperidin-2-one] | 1 to 10 nM |
| C[C@@H]1COCCN1Cc1ccc(-c2cc3c(s2)Cc2c(-c4ccc5cnn(C)c5c4)n[nH]c2-3)cc1 [Compound 74, (R)-3-methyl-4-(4-(3-(1-methyl-1H-indazol-6-yl)-1,4-dihydrothieno [2′,3′:4,5]cyclopenta [1,2-c]pyrazol-6-yl)benzyl)morpholine] | < 1 nM |
| Cn1ncc2ccc(-c3n[nH]c4c3Cc3sc(-c5cc(F)c(CN6CCOCC6)c(F)c5)cc3-4)cc21 [Compound 53, 4-(2,6-difluoro-4-(3-(1-methyl-1H-indazol-6-yl)-1,4-dihydrothieno [2′,3′:4,5]cyclopenta [1,2-c]pyrazol-6-yl)benzyl)morpholine] | < 1 nM |
| Cn1ncc2ccc(-c3n[nH]c4c3Cc3sc(-c5cccc(CN6CCOCC6)c5)cc3-4)cc21 [Compound 13, 4-(3-(3-(1-methyl-1H-indazol-6-yl)-1,4-dihydro-thieno[2′,3′:4,5]cyclopenta [1,2-c]pyrazol-6-yl)benzyl) morpholine] | 1 to 10 nM |
| Cn1ncc2ccc(-c3n[nH]c4c3Cc3sc(-c5ccc(CN6CCOCC6)cc5)cc3-4)cc21 [Compound 8, 4-(4-(3-(1-methyl-1H-indazol-6-yl)-1,4-dihydro-thieno[2′,3′:4,5]cyclopenta [1,2-c]pyrazol-6-yl)benzyl) morpholine] | < 1 nM |
| CN(C)C(=O)c1ccc(-c2cc3c(s2)Cc2c(-c4ccc5cnn(C)c5c4)n[nH]c2-3)cc1 [Compound 49, N,N-dimethyl-4-(3-(1-methyl-1H-indazol-6-yl)-1,4-dihydrothieno [2′,3′:4,5]cyclopenta [1,2-c]pyrazol-6-yl) benzamide] | < 1 nM |
| Cn1ncc2ccc(-c3n[nH]c4c3Cc3sc(-c5ccc(CN6CCOCC6)cn5)cc3-4)cc21 [Compound 95, 4-((6-(3-(1-methyl-1H-indazol-6-yl)-1,4-dihydro-thieno[2′,3′:4,5]cyclopenta [1,2-c]pyrazol-6-yl)pyridin-3-yl)methyl) morpholine] | < 1 nM |
| Cn1ncc2ccc(-c3n[nH]c4c3Cc3sc(-c5ccc(CN6CCSCC6)cc5)cc3-4)cc21 [Compound 39, 3-(1-methyl-1H-indazol-6-yl)-6-(4-(thiomorpho-linomethyl)phenyl)-1,4-dihydrothieno[2′,3′:4,5] cyclopenta[1,2-c]pyrazole] | 1 to 10 nM |
| CN(c1ccc(-c2cc3c(s2)Cc2c(-c4ccc5cnn(C)c5c4)n[nH]c2-3)cc1)C1CCOCC1 [Compound 73, N-methyl-N-(4-(3-(1-methyl-1H-indazol-6-yl)-1,4-dihydrothieno [2′,3′:4,5]cyclopenta [1,2-c]pyrazol-6-yl)phenyl)tetrahydro-2H-pyran-4-amine] | 1 to 10 nM |
| Cc1ccc(-c2cc3c(s2)Cc2c(-c4ccc5cnn(C)c5c4)n[nH]c2-3)cn1 [Compound 11, 3-(1-methyl-1H-indazol-6-yl)-6-(6-methylpyridin-3-yl)-1,4-dihydrothieno [2′,3′:4,5]cyclopenta[1,2-c] pyrazole] | 1 to 10 nM |
| Cn1ncc2ccc(-c3n[nH]c4c3Cc3sc(C5=CCN(C(=O)N6CCOCC6)CC5)cc3-4)cc21 [Compound 57, (4-(3-(1-methyl-1H-indazol-6-yl)-1,4-dihydro-thieno[2′,3′:4,5]cyclopenta [1,2-c]pyrazol-6-yl)-3,6-dihydropyridin-1(2H)-yl) (morpholino)methanone] | < 1 nM |
| c1cc(CN2CCOCC2)ncc1-c1cc2c(s1)Cc1c(-c3ccc4cn[nH]c4c3)n[nH]c1-2 [Compound 18, 4-((5-(3-(1H-indazol-6-yl)-1,4-dihydrothieno[2′,3′:4,5]cyclopenta[1,2-c]pyrazol-6-yl)pyridin-2-yl)methyl) morpholine] | < 1 nM |
| COc1cc(-c2cc3c(s2)Cc2c(-c4ccc5cnn(C)c5c4)n[nH]c2-3)ccc1C(=O)N1CCOCC1 [Compound 43, (2-methoxy-4-(3-(1-methyl-1H-indazol-6-yl)-1,4-dihydrothieno [2′,3′:4,5]cyclopenta [1,2-c]pyrazol-6-yl)phenyl)(morpholino) methanone] | 1 to 10 nM |
| CN1CCN(C(=O)c2ccc(-c3cc4c(s3)Cc3c(-c5ccc6cnn(C)c6c5)n[nH]c3-4)cc2)CC1 [Compound 15, (4-(3-(1-methyl-1H-indazol-6-yl)-1,4-dihydrothieno[2′,3′:4,5]cyclopenta[1,2-c]pyrazol-6-yl)phenyl)(4-methyl-piperazin-1-yl)methanone] | < 1 nM |
| Cn1ncc2ccc(-c3n[nH]c4c3Cc3sc(-c5ccc(CN6CCOCC6)c(F)c5)cc3-4)cc21 [Compound 25, 4-(2-fluoro-4-(3-(1-methyl-1H-indazol-6-yl)-1,4-dihydrothieno[2′,3′:4,5]cyclopenta[1,2-c]pyrazol-6-yl)benzyl)morpholine] | 1 to 10 nM |
